Holding throughout (assay type): in vivo, rat
A short description of series [1]: Lean body mass and fat content by Dual Energy X-ray Absortiometry after 6 months daily oral feeding of control and ovariectomised rats. As to conditions: daily oral feeding 6 months (GlcNBu 200 mg/kg/day or equimolar Glc). Here is the method:
In another experiment, there were four Groups of Sprague Dawley type female rats, with eight animals in each group, of approximately 250 g in weight. Two of the said groups underwent surgical ovariectomy and will be referred as the ovariectomised Groups (OVX). […] One C group and one OVX Group were fed GlcNBu, 200 mg/kg/day orally and one C group and one OVX Group were fed an equimolar amount of Glc daily. The daily feedings continued for all of the animals for a period of 6 months. At the end of the 6 month period the animals were euthanized, blood was obtained by cardiac puncture for glucose measurements, 24 hours after the administration of the Glc or GlcNBu, and their body fat and lean body mass was estimated, using a Hologic 4500 Dual Energy X-ray Absortiometry instrument, with small animal software.
It was previously known that ovariectomy increases the body weight and the fat content of animals undergoing this procedure. The results for the lean body mass and the fat content are shown in Table 1 and presented as the mean values±the standard deviations (SD) for each group of Animals.

A further series has as its system blood glucose. Kind of series: Blood glucose after oral gavage in 24 h fasted rats (glucose oxidase kit). The conditions noted are these: fasted 24 h, gavage of 0.736 M in 3 ml saline; for increase in blood glucose compared with saline and glucose groups: male rats, 0-150 min. As for the experimental part:
In the experiments performed and described herein, there were four groups of Spague Dawley type male rats, weighting approximately 300 g each, consisting of four (4) animals in each group. The animals were fed freely on standard rat chow and were then fasted for 24 hours. At the end of this period, said animals were lightly anaesthetized with nitrogen oxide and halothane, the body temperature being maintained with a heat lamp, and the femoral artery was cannulated, with a heparinized catheter and syringe, so that multiple blood samples could be obtained at serial time points. The test compounds were administered by gavaging the animals, said compounds having being dissolved in 3 ml of normal saline. The concentrations of the compounds administered to three groups of animals were: 0.736 M (550 mg in 3 ml of saline) of N-butyryl-D-glucosamine (designated as GlcNBu), or 0.736 M (398 mg in 3 ml of saline) of D-glucose (designated as Glc), or a combination of 0.736 M of GlcNBu and 0.736 M Glc dissolved together in 3 ml of saline. No compound was administered to the fourth group of animals (which consisted of a control group) and animals in this group were gavaged instead with 3 ml of normal saline.
Blood (0.4 ml) was collected at 10 min before the gavage (designated as −10 min in the accompanying FIG. 1), immedietly before the gavage (designated as 0 min) and at the following time points (timed in minutes after time 0) 5, 15, 30, 60, 90, 120 and 150, as shown in the accompanying figure. The glucose concentration in the blood was determined by a commercial glucose oxidase kit, designed for the determination of blood glucose in the blood of patients with diabetes. The determinations were done in triplicate for each time point and for each of the four animals in each of the four groups.
With reference to FIG. 1, each point of the graph represents the mean of the blood glucose concentrations obtained from the four rats in each group of animals. […]

Series [2] is described as follows: Incorporation of radioactivity from radiolabelled GlcNBu into plasma glucose, glucosamine or N-acetylglucosamine (HPLC of acetonitrile-soluble plasma fraction). The conditions noted are these: rats, oral or IP, plasma acetonitrile-soluble fractions up to 4 hour, amine column HPLC. As for the experimental part:
In order to test whether GlcNBu, in fact, was incorporated into serum glucose, or glucosamine, radiolabelled GlcNBu was prepared from [^3H] glucosamine and administered either orally or intra-peritoneally (IP) to rats, under identical conditions shown in FIG. 1. Plasma was sampled serially and plasma proteins were precipitated with acetonitrile and the radioactivity into the acetonitrile-soluble fraction containing GlcNBu metabolites was quantified. It can be seen that the radioactive profile from the oral administration of [^3H] GlcNBu is different than the glucose concentration profiles (FIG. 1). Acetonitrile-soluble fractions illustrated in FIG. 2, including the 4 hour time point were analyzed by HPLC, using an amine column and acetonitrile/water mixtures as the mobile phase (1 mL/min flow rate), Absorbance at 195 nm and radioactivity of 2 mL fractions were monitored. Radiolabelled and non-radiolabelled standards of GlcNBu, glucose, glucosamine, N-acetylglucosamine and various disaccharides were used as standards for the column. […] It is, therefore, unlikely that a significant proportion of orally fed GlcNBu is converted to glucose, glucosamine or N-acetylglucosamine, over the time course of the study. Also, glucose or glucosamine are not known to be converted into GlcNBu by animal tissues.

Setting [3] is: control (C, non-ovariectomised) female rats.
[4] abbreviates: ovariectomised (OVX) female rats.

With `CCCC(=O)N[C@H]1C(O)O[C@H](CO)[C@@H](O)[C@@H]1O` (stereo partly drawn) [GlcNBu, N-butyryl-D-glucosamine], the results for the “Fat content (g, mean ± SD)” value in series [1] (setting [3]) and in series [1] (setting [4]) were 74.57 ± 23.2 g and 126.08 ± 38.4 g, respectively. The “Lean body mass (g, mean ± SD)” value was 264.02 ± 12.1 g in series [1] (setting [3]) and 307.52 ± 34.0 g in series [1] (setting [4]). In addition, the “increase in blood glucose compared with saline and glucose groups” value in the series on blood glucose is on record as “higher than those gavaged with saline but lower than those rats gavaged with glucose”; in the series on blood glucose (listed as N-butyryl-D-glucosamine) it was “lower blood glucose”.
As to `O=C[C@H](O)[C@@H](O)[C@H](O)[C@H](O)CO` [Glc, D-glucose, reference compound], the “Fat content (g, mean ± SD)” value in series [1] (setting [3]) worked out at 77.45 ± 21.0 g; in series [1] (setting [4]), 112.94 ± 30.9 g. The entries for the “Lean body mass (g, mean ± SD)” value in series [1] (setting [3]) and in series [1] (setting [4]) were 283.93 ± 21.5 g and 296.87 ± 6.2 g, respectively. Besides, in the series on blood glucose (male Sprague Dawley rats, followed to 150 min, mean of 4 rats), the “blood glucose concentration rose from time 0 to” value was approximately 7 mmol/L.
For `CCCC(=O)N[C@H]1C(O)O[C@H](CO)[C@@H](O)[C@@H]1O` (stereo partly drawn) [[^3H] GlcNBu], the “incorporation of radioactivity into glucose, glucosamine or N-acetylglucosamine” value in series [2] is reported as “no significant incorporation of radioactivity”.

The values above are taken from patent US20060148758A1, “Method for blood glucose control in a mammal by N-acylated glucosamines” (priority 2005, published 2006).
